The values that follow come from patent publication US5834462A, “Tricyclic heterocyclic sulfonamide and sulfonic ester derivatives” (Eisai Co., Ltd., priority 1993, dated 1998).

≈ marks a conversion by molar mass, not a printed value.

In general, IC50 refers to the concentration that inhibits the measured activity by half. Low readings indicate greater potency, high ones weaker potency.

In assay [1] the test system is KB cells (human nasopharyngeal cancer cells). The assay is described as follows: in vitro Antitumor test on KB cells (MTT). Type of assay: cell-based. The note with it: 72 h, 3 days incubation. As to the method: in vitro Antitumor test on KB cells (human nasopharyngeal cancer cells)
KB cells suspended in an RPMI1640 medium (mfd. by Nissui Seiyaku K. K.), which contained 10% of fetal calf serum, 100 U/mi of penicillin, 100 μg/ml of streptomycin, 5×10^-5 M of mercaptoethanol and 1 mM of sodium pyruvate, were inoculated in 1.25×10^3 portions (0.1 ml) into wells of a 96-well flat-bottomed microplate and then incubated in an incubator containing 5% of carbon dioxide at 37° C. for a day.
A compound of the present invention was dissolved in dimethyl sulfoxide in a concentration of 20 mg/ml and diluted with a 10% fetal calf serum-RPMI1640 culture medium to a concentration of 100 μg/ml. By using this concentration as the highest level, threefold serial dilution was performed with a 10% fetal calf serum-RPMI1640 culture medium. Then it was added in 0.1 ml portions into the wells of the above-mentioned plate wherein the KB cells had been incubated followed by incubation in the incubator containing 5% of carbon dioxide at 37° C. for 3 days.
After incubating, an MTT (3-(4,5-dimethylthiazol-2-yl)-2,5-diphenyltetrazolium bromide) solution (3.3 mg/ml) was added in 0.05 ml portions into the wells and the incubation was effected for additional 1 hour. After sucking off the supernatant from each well, the formazane thus formed was dissolved in 0.1 ml of dimethyl sulfoxide. Then the absorbance at 540 nm was measured with a microplate reader and employed as an indication of the vital cell count. In accordance with the following equation, the inhibitory ratio was calculated and the 50% inhibitory concentration (IC50) of the test compound was determined. [formula] T: absorbance of a well containing the test commpound. C: absorbance of a well containing no test compound.

Assay [2] relates to M5076 (mouse reticulum cell sarcoma). The assay is described as follows: in vivo antitumor test on M5076 transplanted in BDF1 mice. To be noted: intraperitoneal, 4 times every other day from 10th day. The source says: in vivo antitumor test on M5076 (mouse reticulum cell sarcoma)
1×10^6 M5076 cells were subcutaneously transplanted into the lateral parts of BDF1 mice (aged 6 to 9 weeks, female). A compound of the present invention was suspended in physiological saline containing 3.5% of dimethyl sulfoxide and 6.5% of Tween 80 and a given amount of the obtained suspension was intraperitoneally administered to the animals 4 times from the 10th day after the transplantation once a day every other day. The control group comprised 10 to 12 animals, while the test group comprised 5 or 6 animals.
On the 21st day after the transplantation, tumors were taken out and weighed. Then the tumor multiplication inhibitory ratio of each test group based on the control group was determined in accordance with the following equation. [formula] T: average tumor weight of the test group. C: average tumor weight of the control group.

Take `COc1ccc(S(=O)(=O)Nc2cccc3c2Nc2ccccc2CO3)cc1` [Example 17, N-(5,11-Dihydrpdibenz(b,e)(1,4)oxazepin-6-yl)-4-methoxybenzenesulfonamide]: the 50% inhibitory concentration (IC50) in assay [1] was found to be 0.03 µg/mL (≈ 0.0784 µM). Also, in assay [2] (100 mg/kg/day), the “Inhibitory ratio (tumor weight, 21st day)” value (“Inhibitory ratio” below) is given as 81% and the “Survival ratio on 21st day” value is on record as 100%.
Compound `COc1ccc(S(=O)(=O)Nc2cccc3c2Nc2cc(F)c(F)cc2S3)cc1` [Example 28, N-(7,8-Difluoro-10-pbenothiazin-1-yl)-4-methoxy-benenesulfonamide] had a concentration for half-maximal inhibition (IC50) in assay [1] of 0.069 µg/mL (≈ 0.164 µM). In assay [2] (50 mg/kg/day), the “Inhibitory ratio” value amounted to 82% and the “Survival ratio on 21st day” value is given as 100%.
In assay [1], `COc1ccc(S(=O)(=O)Nc2cccc3c2Nc2ccccc2S3)cc1` [Example 1, 4-Methoxy-N-(10H-phenothiazin-1-yl)benenesulfonamide] had a half-inhibitory concentration (IC50) of 0.11 µg/mL (≈ 0.286 µM). In assay [2] (50 mg/kg/day), the “Inhibitory ratio” value came out at 73% and the “Survival ratio on 21st day” value stood at 100%.
Compound `COc1ccc(S(=O)(=O)Nc2cccc3c2Nc2ncccc2O3)cc1` [Example 15, 4-Methoxy-N-(10H-pyrido(3,2-b)(1,4)benzoxazin-9-yl)-benzenesulfonamide] displayed an IC50 in assay [1] of 0.15 µg/mL (≈ 0.406 µM).
Same read-out and setting: the result for `COc1ccc(S(=O)(=O)Nc2cccc3c2Nc2ccc(F)c(O)c2CO3)cc1` [Example 45, N-(5,11-Dihydro-2-fluoro-1-hydroxydibenz(b,e)-(1,4)oxazepin-6-yl)-4-methoxybenzenesulfonamide] reads 0.016 µg/mL (≈ 0.0384 µM).
Still for that read-out and setting: the result for `CCN1Cc2ccccc2Nc2c(NS(=O)(=O)c3ccc(OC)cc3)cccc21` [Example 41, N-(10,11-Dihydro-10-ethyl-5H-dihenzo(b,e)(1,4)-diazepin-6-yl)-4-meltoxybenzenesulfonamnide] reads 0.28 µg/mL (≈ 0.684 µM).
In the case of `COc1ccc(S(=O)(=O)Nc2cccc3c2Nc2ccc(F)cc2CN3)cc1` [Example 32, N-(10,11-Dihydro-2-fluoro-5dibenzo(b,e) (1,4)-diazepin-6-yl)-4-methoxybenzenesulfonamide], the half-maximal inhibitory concentration (IC50) in assay [1] amounted to 0.082 µg/mL (≈ 0.205 µM). In assay [2] (25 mg/kg/day), the “Inhibitory ratio” value stood at 84% and the “Survival ratio on 21st day” value was 100%.
`COc1ccc(S(=O)(=O)Nc2cccc3c2Nc2ccccc2O3)cc1` [Example 5, 4-Methoxy-N-(10H-phenoxazin-1-yl)benzenesulfonamide]: in assay [1], it took 0.08 µg/mL (≈ 0.217 µM) to reach half-maximal inhibition (IC50).
In turn, `COc1ccc(S(=O)(=O)Nc2cccc3c2Nc2ccc(F)c(O)c2CN3)cc1` [Example 47, N-(10,11-Dihydro-2-fluoro-1-hydroxy-5H-dibenzo(b,e)-(1,4)diazepin-6-yl)-4-methoxybenzenesulfonamide] showed an IC50 in assay [1] of 0.078 µg/mL (≈ 0.188 µM).
In the case of `Nc1ccc(S(=O)(=O)Nc2cccc3c2Nc2ccccc2S3)cc1` [Example 34, 4-Amino-N-(10-phenothiazin-1-yl)benzenesulfonamide], in assay [1], it took 0.25 µg/mL (≈ 0.677 µM) to reach half-maximal inhibition (IC50).
The same measure, in the same setting: the result for `COc1ccc(S(=O)(=O)Nc2cc(F)cc3c2Nc2ccc(O)cc2CO3)cc1` [Example 39, N-(5,11-Dihydro-8-fluoro-2-hdroxydihenz(b,e)(1,4)-oxazepin-6-yl)-4-methoxybenrzenesilfonamide] reads 0.26 µg/mL (≈ 0.624 µM); that for `COc1ccc(S(=O)(=O)Nc2cccc3c2Nc2ccccc2OC3)cc1` [Example 40, N-(5,11-Dihydrodibenz(b,e)(1,4)oxalelpin-4-yl)-4-methoxybenzenesulfonamide], 0.032 µg/mL (≈ 0.0837 µM); that for `COc1ccc(S(=O)(=O)Nc2cccc3c2Nc2c(Cl)cc(F)c(O)c2CN3)cc1` [Example 46, N-(4-Chloro-10,11-dihvdro-2-fluoro-1-hvdroxy-5-dibenzo(b,e)(1,4)diazepin-6-yl)-4-methoxybenzene-sulfonamide], 0.25 µg/mL (≈ 0.556 µM).
On the same count and under the same terms, under `COc1ccc(S(=O)(=O)Nc2cccc3c2Nc2cccnc2O3)cc1` [Example 16, 4-Methoxy-N-(5H-pyrido(2,3-b)(1,4)benzoxazin-6-yl)-benzenesulfonamide] stands 0.022 µg/mL (≈ 0.0596 µM).
In the case of `COc1ccc(S(=O)(=O)Nc2cccc3c(=O)c4cc(O)ccc4[nH]c23)cc1` [Example 20, N-(7-Hydroxy-9(10H)-acridinon-4-yl)-4-methoxybenzene-sulfonamide], the IC50 in assay [1] turned out to be 0.11 µg/mL (≈ 0.277 µM).
`COc1ccc(S(=O)(=O)Nc2cccc3c2Nc2ccc(O)cc2CO3)cc1` [Example 30, N-(5,11-Dibydro-2-bydroxydihenz(b,e)(1,4)oxazepin-6-yl)-4-methoxybenzensulfonamide] gave an IC50 in assay [1] of 0.028 µg/mL (≈ 0.0703 µM). In assay [2] (100 mg/kg/day), the “Inhibitory ratio” value is listed as 82% and the “Survival ratio on 21st day” value amounted to 100%.
As to `COc1ccc(S(=O)(=O)Nc2cccc3c2Nc2ccc(C#N)cc2CN3)cc1` [Example 48, N-(2-Cyano-10,11-dihydro-5H-dibenzo(b,e)(1,4)diazepin-6-yl)-4-methoxybenzenesulfonamide], the IC50 in assay [1] was 0.028 µg/mL (≈ 0.0689 µM).
`COc1ccc(S(=O)(=O)Nc2cccc3c2Nc2ccccc2CS3)cc1` [Example 26, N-(5,11-Dihydrobenzo(b,e)(1,4)thiazepin-6-yl)-4-metboxybenzenesulfonamide] had an IC50 in assay [1] of 0.15 µg/mL (≈ 0.376 µM).
Still for that read-out and setting: under `Cc1ccc(S(=O)(=O)Nc2cccc3c2Nc2ccc(O)cc2CO3)s1` [Example 42, N-(5,11-Dihydro-2-hydroxydihenz(b,e)(1,4)oxazepin-6-yl)-5-methyl-2-thiopbhenesulfonamide] stands 0.13 µg/mL (≈ 0.335 µM).
